We go through five molecules from the NIST ThermoML archive (doi:10.1021/je401095k).

Data set [1] can be described thus: refractive index (Na D-line) (dimensionless). The following applies: 293.2 K; 101.33 kPa; Liquid; Standard Abbe refractometry.
For data set [2] the following is noted: 293.2 K; 101.33 kPa; Liquid; Vibrating tube method.

Molecules are shown by their SMILES. Numbers after ± are expanded uncertainties.

For the molecule `CCCC(=O)O` [butanoic acid], the refractive index (in general, a measure of how strongly the sample bends light) in data set [1] came to 1.3977 ± 0.0008. Also, in data set [2], the mass density (commonly mass per unit of volume) is reported as 952.68 ± 0.23 kg/m3.

For `CC(=O)OCCC(C)C` [3-methylbutyl ethanoate], in data set [1], the refractive index worked out at 1.3976 ± 0.0008. Besides, in data set [2], the mass density worked out at 866.71 ± 0.24 kg/m3.

On to `O` [water], for which, in data set [1], the refractive index was found to be 1.3324 ± 0.0008.

On to `O=CO` [formic acid], for which, in data set [1], the refractive index stood at 1.371 ± 0.0008. Moreover, the mass density in data set [2] came out at 1219.5 ± 0.42 kg/m3.

As for `CC(=O)CCC(C)C` [5-methyl-2-hexanone], the refractive index in data set [1] was determined as 1.4051 ± 0.0008. In addition, the mass density in data set [2] was 887.92 ± 0.24 kg/m3.
